Entries after “also recorded” stand apart in the source; their conditions may differ.
Assays:
[1] = test system: patients with steroid-resistant or steroid-dependent ulcerative colitis; assay: Continuous intravenous administration of adrenomedullin to patients with intractable ulcerative colitis; type: in vivo, human; settings: for DAI (Average): 6 cases, immediately before administration 9.0 ± 1.4; for Endoscopic findings in the large bowel: maintenance of remission: continuation treatment azathioprine 50 mg/day
colitis model = settings: Gonzalez et al.; intraperitoneal administration of 12 μg/kg body weight; cited from earlier work
[2] = test system: various disease model animals; assay: Continuous intravenous injection of adrenomedullin for 1 month in disease model animals; type: in vivo; settings: continuous intravenous injection for 1 month
Procedure: (§1) The safety of continuous intravenous injection of adrenomedullin for 90 minutes was confirmed in 28 subjects including normal individuals. […] In the present Examples, 2 weeks of the animal test period was set to the continuous administration period.

[3] = test system: DSS enteritis (diffuse colitis); assay: Administration in DSS enteritis (diffuse colitis) model; type: in vivo; settings: 2.5 μg/kg body weight
[4] = test system: inflammatory bowel disease model; type: in vivo
Source text: Thus, in the adrenomedullin administration, a low dose to an extent not greatly affecting circulatory dynamics is preferably used; a high dose rather makes it worse.

[5] = test system: large bowel artificial ulcer model; assay: Enema administration to a large bowel artificial ulcer model; type: in vivo; settings: 5.0 μg/kg body weight
[6] = test system: subjects including normal individuals; assay: Safety tests of continuous intravenous injection of adrenomedullin in subjects including normal individuals; type: in vivo, human
Procedure: as §1

In the case of CC[C@H](C)[C@H](NC(=O)[C@H](CCC(N)=O)NC(=O)[C@H](Cc1c[nH]cn1)NC(=O)[C@H](C)NC(=O)[C@H](CC(C)C)NC(=O)[C@H](CCCCN)NC(=O)[C@H](CCC(N)=O)NC(=O)[C@@H](NC(=O)[C@@H](NC(=O)[C@@H]1CSSC[C@H](NC(=O)CNC(=O)[C@H](Cc2ccccc2)NC(=O)[C@H](CO)NC(=O)[C@H](CCCNC(=N)N)NC(=O)[C@H](CC(C)C)NC(=O)CNC(=O)[C@H](CCC(N)=O)NC(=O)[C@H](Cc2ccccc2)NC(=O)[C@H](CC(N)=O)NC(=O)[C@H](CC(N)=O)NC(=O)[C@H](CCSC)NC(=O)[C@H](CO)NC(=O)[C@H](CCC(N)=O)NC(=O)[C@H](CCCNC(=N)N)NC(=O)[C@@H](N)Cc2ccc(O)cc2)C(=O)N[C@@H](CCCNC(=N)N)C(=O)N[C@@H](Cc2ccccc2)C(=O)NCC(=O)N[C@@H]([C@@H](C)O)C(=O)N1)[C@@H](C)O)C(C)C)C(=O)N[C@@H](Cc1ccc(O)cc1)C(=O)N[C@@H](CCC(N)=O)C(=O)N[C@@H](Cc1ccccc1)C(=O)N[C@H](C(=O)N[C@@H](CC(=O)O)C(=O)N[C@@H](CCCCN)C(=O)N[C@@H](CC(=O)O)C(=O)N[C@@H](CCCCN)C(=O)N[C@@H](CC(=O)O)C(=O)N[C@@H](CC(N)=O)C(=O)N[C@H](C(=O)N[C@@H](C)C(=O)N1CCC[C@H]1C(=O)N[C@@H](CCCNC(=N)N)C(=O)N[C@@H](CO)C(=O)N[C@@H](CCCCN)C(=O)N[C@H](C(=O)N[C@@H](CO)C(=O)N1CCC[C@H]1C(=O)N[C@@H](CCC(N)=O)C(=O)NCC(=O)N[C@@H](Cc1ccc(O)cc1)C(N)=O)[C@@H](C)CC)C(C)C)[C@@H](C)O [adrenomedullin, synthetic human adrenomedullin], the “DAI (Average)” value ([1]; 12 weeks after start of administration, p 0.0001) is reported as 1.0 ± 1.15, the “DAI (Average)” value ([1]; 14 days after start of administration, 1.5 pmol/kg body weight/min i.v., 8 hours/day, p 0.0028) is reported as 5.0 ± 2.4 and the “Mucosal regeneration in the affected areas” value ([1]; all 6 cases) is reported as “prominent mucosal regeneration was also confirmed”. The Remission maintenance ([1]; all 6 cases) was “remission was maintained”, the Treatment effects ([1]; all 6 cases of adrenomedullin administration) was “treatment effects were confirmed in all cases” and the “DAI improvement at 14 days after adrenomedullin administration” value ([1]; in 4 cases of 6) was at least 4 points. The Blood pressure reduction ([1]; one patient, 1.5 pmol/kg body weight/min during 14 days of administration) was at most 10 mmHg, the “Variation in the blood concentration of adrenomedullin immediately after administration” value ([1]; one patient, 1.5 pmol/kg body weight/min i.v.) was “smaller than variation due to inflammation” and the “Endoscopic findings in the large bowel: maintenance of remission” value ([1]; one patient, 3 months after adrenomedullin administration) was “confirmed the maintenance of the remission; also recorded: Remission maintenance was confirmed”. The “Endoscopic findings in the large bowel: maintenance of remission” value ([1]; one patient, 12 months after adrenomedullin administration) was “also confirmed the maintenance of the remission”, the “Endoscopic findings in the large bowel” value ([1]; one patient, after 14 days of continuous administration, 1.5 pmol/kg body weight/min, 8 hours/day) was “remission due to adrenomedullin was confirmed; also recorded: marked proliferation of regenerated epithelium (left) and scarring of shallow wide ulcer (right)” and the “Symptoms considered to be side effects” value ([1]; one patient, during 14 days of administration) was “not observed”. The “Efficacy in colitis model” value (colitis model) was “has shown the efficacy”, the Safety and efficacy [2] was “confirming the safety and efficacy thereof” and the “Effect in DSS enteritis (diffuse colitis)” value [3] was “a high effect has also been observed”. The “Curve of adrenomedullin dose versus anti-inflammatory/mucosa-repairing effect” value ([4]; animal experiments) was “anti-bell shape”, the “Blood pressure reduction at the optimal (low) dose” value ([4]; in vivo) was “proved not to cause blood pressure reduction” and the “Effect in large bowel artificial ulcer model” value [5] was “highest”. For the same compound, the Blood pressure reduction ([6]; 2.5 pmol/kg body weight/min, continuous administration for 27 hours) was “more than 20 mmHg”, the “Safety of continuous intravenous injection” value ([6]; 90 minutes, 28 subjects including normal individuals) was “confirmed” and the Adverse events ([6]; continuous intravenous injection for 27 hours, 12 subjects) was “no adverse event was observed”.

— patent US10335455B2, “Method for prevention or treatment of intractable inflammatory bowel disease” (University of Miyazaki, priority 2011, dated 2019)
